From BindingDB's records for doi:10.7270/Q22V2DH9 (Nmmlsc, 2007) come the findings set out here.

The target in the assay is T1, N-formyl peptide receptor 2 (Homo sapiens, UniProt P25090).
T1 sequence (P25090 whole entry): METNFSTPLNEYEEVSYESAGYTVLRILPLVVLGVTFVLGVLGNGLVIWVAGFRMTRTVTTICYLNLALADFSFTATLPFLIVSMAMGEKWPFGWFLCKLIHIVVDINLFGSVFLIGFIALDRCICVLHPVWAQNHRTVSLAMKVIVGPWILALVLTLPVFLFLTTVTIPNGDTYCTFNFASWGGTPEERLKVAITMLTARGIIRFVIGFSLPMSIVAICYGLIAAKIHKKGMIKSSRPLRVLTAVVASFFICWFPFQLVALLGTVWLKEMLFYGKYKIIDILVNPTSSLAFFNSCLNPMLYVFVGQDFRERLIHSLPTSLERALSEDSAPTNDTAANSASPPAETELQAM
Put plainly: human FPR2 ligand displacement potency – cell-based, flow cytometry, Ki from IC50, selectivity assay for FPR1 ligand SAR project, dose response (AID 723).

As for `COc1ccc(OC)c(C2C(C(=O)c3ccccc3)C(=O)C(=O)N2c2ccc(C)c(Cl)c2)c1` (stereo unspecified) [(4E)-1-(3-chloranyl-4-methyl-phenyl)-5-(2,5-dimethoxyphenyl)-4-[oxidanyl(phenyl)methylidene]pyrrolidine-2,3-dione], the IC50 was over 66.7 µM.

In turn, `COc1ccc(C2C(C(=O)c3ccccc3)C(=O)C(=O)N2c2cccc(Cl)c2)c(OC)c1` (stereo unspecified) [(4E)-1-(3-chlorophenyl)-5-(2,4-dimethoxyphenyl)-4-[hydroxy(phenyl)methylene]pyrrolidine-2,3-quinone] yielded an IC50 of over 66.7 µM.

For `COCCCN1C(=O)C(=O)C(C(=O)c2ccccc2)C1c1ccc(C(C)C)cc1` (stereo unspecified) [(4E)-1-(3-methoxypropyl)-4-[oxidanyl(phenyl)methylidene]-5-(4-propan-2-ylphenyl)pyrrolidine-2,3-dione], the IC50 was over 66.7 µM.

For `Cc1ccc(C(=O)C2C(=O)C(=O)N(c3nnc(C)s3)C2c2ccc(C(C)C)cc2)cc1` (stereo unspecified) [(4E)-4-[(4-methylphenyl)-oxidanyl-methylidene]-1-(5-methyl-1,3,4-thiadiazol-2-yl)-5-(4-propan-2-ylphenyl)pyrrolidine-2,3-dione], the IC50 was over 66.7 µM.

Regarding `CC(C)c1ccc(C2C(C(=O)c3ccccc3)C(=O)C(=O)N2Cc2cccnc2)cc1` (stereo unspecified) [(4E)-4-[hydroxy(phenyl)methylene]-5-p-cumenyl-1-(3-pyridylmethyl)pyrrolidine-2,3-quinone], the 50% inhibitory concentration (IC50) is over 66.7 µM.

On to `COc1ccc(C2C(C(=O)c3ccccc3)C(=O)C(=O)N2CCCn2ccnc2)c(OC)c1` (stereo unspecified) [(4E)-5-(2,4-dimethoxyphenyl)-1-(3-imidazol-1-ylpropyl)-4-[oxidanyl(phenyl)methylidene]pyrrolidine-2,3-dione], for which the half-inhibitory concentration (IC50) was over 66.7 µM.

In turn, `COc1ccc(C2C(C(=O)c3ccc(C)cc3)C(=O)C(=O)N2Cc2cccnc2)c(OC)c1` (stereo unspecified) [(4E)-5-(2,4-dimethoxyphenyl)-4-[(4-methylphenyl)-oxidanyl-methylidene]-1-(pyridin-3-ylmethyl)pyrrolidine-2,3-dione] returned an IC50 of over 66.7 µM.

Turning to `COCCN1C(=O)C(=O)C(C(=O)c2ccccc2)C1c1cc(OC)ccc1OC` (stereo unspecified) [(4E)-5-(2,5-dimethoxyphenyl)-1-(2-methoxyethyl)-4-[oxidanyl(phenyl)methylidene]pyrrolidine-2,3-dione], the half-inhibitory concentration (IC50) is over 66.7 µM.

The molecule `COc1ccc(OC)c(C2C(C(=O)c3ccccc3)C(=O)C(=O)N2c2cccnc2)c1` (stereo unspecified) [(4E)-5-(2,5-dimethoxyphenyl)-4-[hydroxy(phenyl)methylene]-1-(3-pyridyl)pyrrolidine-2,3-quinone] had a concentration for half-maximal inhibition (IC50) of over 66.7 µM.

For `COCCCN1C(=O)C(=O)C(C(=O)c2ccccc2)C1c1ccc(O)c(OC)c1` (stereo unspecified) [(4E)-5-(3-methoxy-4-oxidanyl-phenyl)-1-(3-methoxypropyl)-4-[oxidanyl(phenyl)methylidene]pyrrolidine-2,3-dione], the IC50 is over 66.7 µM.

Molecule `O=C1C(=O)N(CN2CCOCC2)C(c2ccc(Br)cc2)C1C(=O)c1ccccc1` (stereo unspecified) [(4E)-5-(4-bromophenyl)-1-(morpholin-4-ylmethyl)-4-[oxidanyl(phenyl)methylidene]pyrrolidine-2,3-dione] displayed a 50% inhibitory concentration (IC50) of over 66.7 µM.

`O=C1NC(c2ccc(Br)cc2)C(C(=O)c2ccc(Cl)cc2)C1=O` (stereo unspecified) [(4E)-5-(4-bromophenyl)-4-[(4-chlorophenyl)-hydroxy-methylene]pyrrolidine-2,3-quinone]: the concentration for half-maximal inhibition (IC50) was over 66.7 µM.

On to `Cc1ccc(C(=O)C2C(=O)C(=O)N(Cc3cccnc3)C2c2ccc(Br)cc2)cc1` (stereo unspecified) [(4E)-5-(4-bromophenyl)-4-[(4-methylphenyl)-oxidanyl-methylidene]-1-(pyridin-3-ylmethyl)pyrrolidine-2,3-dione], for which the IC50 is over 66.7 µM.

Turning to `Cc1ccc(N2C(=O)C(=O)C(C(=O)c3ccccc3)C2c2cccc(F)c2)cc1Br` (stereo unspecified) [(4Z)-1-(3-bromanyl-4-methyl-phenyl)-5-(3-fluorophenyl)-4-[oxidanyl(phenyl)methylidene]pyrrolidine-2,3-dione], the half-maximal inhibitory concentration (IC50) is over 66.7 µM.

For the molecule `CCCCCCN1C(=O)C(=O)C(C(=O)c2ccccc2)C1c1ccc(O)c(OC)c1` (stereo unspecified) [(4Z)-1-hexyl-5-(3-methoxy-4-oxidanyl-phenyl)-4-[oxidanyl(phenyl)methylidene]pyrrolidine-2,3-dione], the IC50 was over 66.7 µM.

Consider `COc1cccc(/C=C2/C(=O)NN(c3ccc(C)cc3)C2=O)c1` [(4Z)-4-[(3-methoxyphenyl)methylidene]-1-(4-methylphenyl)pyrazolidine-3,5-dione], for which the IC50 was over 66.7 µM.

Consider `COc1ccc(C(=O)C2C(=O)C(=O)NC2c2ccc(OC)cc2OC)cc1` (stereo unspecified) [(4Z)-5-(2,4-dimethoxyphenyl)-4-[(4-methoxyphenyl)-oxidanyl-methylidene]pyrrolidine-2,3-dione], for which the IC50 is over 66.7 µM.

In turn, `CCCCCCOc1cccc(N2C(=O)C(=O)C(C(=O)c3ccccc3)C2c2cccc(F)c2)c1` (stereo unspecified) [(4Z)-5-(3-fluorophenyl)-1-(3-hexoxyphenyl)-4-[hydroxy(phenyl)methylene]pyrrolidine-2,3-quinone] displayed an IC50 of over 66.7 µM.

Consider `O=C1C(=O)N(c2ccc(F)cc2)C(c2ccc(Br)cc2)C1C(=O)c1ccccc1` (stereo unspecified) [(4Z)-5-(4-bromophenyl)-1-(4-fluorophenyl)-4-[hydroxy(phenyl)methylene]pyrrolidine-2,3-quinone], for which the IC50 is over 66.7 µM.

Consider `N#Cc1c(N=C(CC(=O)c2ccccc2)C(=O)O)sc2c1CCC2` [(Z)-2-[(3-cyano-5,6-dihydro-4H-cyclopenta[b]thiophen-2-yl)amino]-4-keto-4-phenyl-but-2-enoic acid], for which the half-maximal inhibitory concentration (IC50) was over 66.7 µM.

With `COc1ccc(OC)c(CNC(=O)Cn2c(=O)sc3ccccc32)c1` [N-(2,5-dimethoxybenzyl)-2-(2-keto-1,3-benzothiazol-3-yl)acetamide], the concentration for half-maximal inhibition (IC50) is over 66.7 µM.

Take `Cc1cccc(C)c1NC(=O)C(NC(=O)Cc1cccs1)c1ccccc1` (stereo unspecified) [N-(2,6-dimethylphenyl)-2-[(1-oxo-2-thiophen-2-ylethyl)amino]-2-phenylacetamide]: the 50% inhibitory concentration (IC50) was over 66.7 µM.

On to `CC(C)C(=O)N(Cc1ccco1)S(=O)(=O)c1cccc2cccnc12` [N-(2-furanylmethyl)-2-methyl-N-(8-quinolinylsulfonyl)propanamide], for which the IC50 was over 66.7 µM.

With `CCCC(=O)N(Cc1ccco1)S(=O)(=O)c1cccc2cccnc12` [N-(2-furanylmethyl)-N-(8-quinolinylsulfonyl)butanamide], the 50% inhibitory concentration (IC50) was over 66.7 µM.

`COc1cccc(-c2ccnc3[nH]n(-c4ccccc4)c(=O)c23)c1` [UNM000003608001] yielded an IC50 of over 66.7 µM.

`CCc1cc2c(=O)c(-c3nc4ccccc4n3C)c(C)oc2cc1OC(C)=O` [acetic acid [6-ethyl-2-methyl-3-(1-methyl-2-benzimidazolyl)-4-oxo-1-benzopyran-7-yl] ester] returned a 50% inhibitory concentration (IC50) of over 66.7 µM.
